Laboratory results reported in patent US8431514B2, “4-cyano-3-benzoylamino-N-phenyl-benzamides for use in pest control” (Syngenta Crop Protection LLC, priority 2009, dated 2013).
Where two headings read alike, the source gives them in different places.

How the values were obtained:
Assay type in all cases: in vivo
Spodoptera littoralis = Spodoptera littoralis (Egyptian cotton leafworm) leaf disc spray test; conditions: foliar, 72 h, application rate 200 ppm, cotton leaf discs, 5 L1 larvae, mortality, feeding behavior and growth regulation 3 days after treatment
Protocol: (§1) These Examples illustrate the insecticidal and acaricidal properties of the compounds of formula (I). The tests were performed as follows:
(§2) Cotton leaf discs were placed on agar in a 24-well microtiter plate and sprayed with test solutions at an application rate of 200 ppm. After drying, the leaf discs were infested with 5 L1 larvae. The samples were checked for mortality, feeding behavior, and growth regulation 3 days after treatment (DAT). The following compound gave at least 80% control of Spodoptera littoralis: A1, A2, A3, A4, A5, A6, A7, A8, A9, A10, A11, A12, A14, A15, A16, A17, A18, A19, A20. Heliothis Virescens (Tobacco Budworm): Eggs (0-24 h old) were placed in 24-well microtiter plate on artificial diet and treated with test solutions at an application rate of 200 ppm (concentration in well 18 ppm) by pipetting. After an incubation period of 4 days, samples were checked for egg mortality, larval mortality, and growth regulation. The following compound gave at least 80% control of Heliothis virescens: A1, A2, A3, A4, A5, A6, A7, A8, A9, A10, A11, A12, A14, A15, A16, A17, A18, A19, A20. Plutella Xylostella (Diamond Back Moth): 24-well microtiter plate (MTP) with artificial diet was treated with test solutions at an application rate of 200 ppm (concentration in well 18 ppm) by pipetting. After drying, the MTP's were infested with L2 larvae (7-12 per well). After an incubation period of 6 days, samples were checked for larval mortality and growth regulation. The following compound gave at least 80% control of Plutella xylostella: A1, A2, A3, A4, A5, A6, A7, A8, A9, A10, A11, A12, A13, A14, A15, A16, A17, A18, A19, A20. Diabrotica Balteata (Corn Root Worm): A 24-well microtiter plate (MTP) with artificial diet was treated with test solutions at an application rate of 200 ppm (concentration in well 18 ppm) by pipetting. After drying, the MTP's were infested with L2 larvae (6-10 per well). After an incubation period of 5 days, samples were checked for larval mortality and growth regulation. The following compound gave at least 80% control of Diabrotica balteata: A1, A2, A3, A4, A5, A6, A7, A8, A9, A10, A11, A12, A13, A14, A16, A17, A18, A19, A20. Thrips Tabaci (Onion Thrips): Sunflower leaf discs were placed on agar in a 24-well microtiter plate and sprayed with test solutions at an application rate of 200 ppm. After drying, the leaf discs were infested with an […] population of mixed ages. After an incubation period of 7 days, samples were checked for mortality. The following compounds gave at least 80% control of Thrips tabaci: A1, A2, A3, A4, A5, A6, A7, A8, A9, A10, A14, A16, A17, A18, A19, A20. Tetranychus Urticae (Two-Spotted Spider Mite): Bean leaf discs on agar in 24-well microtiter plates were sprayed with test solutions at an application rate of 200 ppm. After drying, the leaf discs are infested with mite populations of mixed ages. 8 days later, discs are checked for egg mortality, larval mortality, and adult mortality. The following compounds gave at least 80% control of Tetranychus urticae: A1, A2, A3, A4, A5, A6, A7, A8, A9, A10, A11, A12, A13, A14, A15, A16, A17, A19, A20.

Thrips tabaci = Thrips tabaci (onion thrips) sunflower leaf disc spray test; conditions: foliar, 168 h, application rate 200 ppm, sunflower leaf discs, population of mixed ages, mortality after 7 days
Protocol: as §1, §2

Heliothis virescens = Heliothis virescens (tobacco budworm) egg test on artificial diet; conditions: 96 h, application rate 200 ppm (concentration in well 18 ppm), eggs 0-24 h old on artificial diet, egg mortality, larval mortality and growth regulation after 4 days
Protocol: as §1, §2

Diabrotica balteata = Diabrotica balteata (corn root worm) artificial diet test; conditions: 120 h, application rate 200 ppm (concentration in well 18 ppm), L2 larvae, larval mortality and growth regulation after 5 days
Protocol: as §1, §2

Plutella xylostella = Plutella xylostella (diamond back moth) artificial diet test; conditions: 144 h, application rate 200 ppm (concentration in well 18 ppm), L2 larvae, larval mortality and growth regulation after 6 days
Protocol: as §1, §2

Tetranychus urticae = Tetranychus urticae (two-spotted spider mite) bean leaf disc spray test; conditions: foliar, 192 h, read-out: control of Tetranychus urticae
Protocol: as §1, §2

[1] = application rate 200 ppm, bean leaf discs, mite populations of mixed ages, egg, larval and adult mortality 8 days later

Measured: pest or weed control at 200 ppm

Cc1cc(C#N)ccc1C(=O)Nc1cc(C(=O)Nc2c(Cl)cc(C(F)(C(F)(F)F)C(F)(F)C(F)(F)F)cc2Br)ccc1C#N (stereo not drawn) [A2, N-[2-bromo-6-chloro-4-(1,2,2,3,3,3-hexafluoro-1-trifluoromethylpropyl)-phenyl]-4-cyano-3-(4′-cyano-2′-methylbenzoylamino)benzamide]
≥ 80%: Spodoptera littoralis | Thrips tabaci | Heliothis virescens | Diabrotica balteata | Plutella xylostella | Tetranychus urticae; [1]

Cc1cc(C#N)ccc1C(=O)Nc1cc(C(=O)Nc2c(Cl)cc(C(F)(C(F)(F)F)C(F)(F)C(F)(F)F)cc2C#N)ccc1C#N (stereo not drawn) [A7, N-[2-chloro-6-cyano-4-(1,2,2,3,3,3-hexafluoro-1-trifluoromethylpropyl)-phenyl]-4-cyano-3-(4′-cyano-2′-methylbenzoylamino)benzamide]
≥ 80%: Spodoptera littoralis | Thrips tabaci | Heliothis virescens | Diabrotica balteata | Plutella xylostella | Tetranychus urticae; [1]

Cc1cc(C#N)ccc1C(=O)Nc1cc(C(=O)Nc2c(C)cc(C3(F)C(F)(F)C(F)(F)C(F)(F)C(F)(F)C3(F)F)cc2C)ccc1C#N [A17, 4-cyano-3-(4′-cyano-2′-methylbenzoylamino)-N-[2,6-dimethyl-4-(undecafluorocyclohexyl)phenyl]benzamide]
≥ 80%: Spodoptera littoralis | Thrips tabaci | Heliothis virescens | Diabrotica balteata | Plutella xylostella | Tetranychus urticae

Cc1cc(C#N)ccc1C(=O)Nc1cc(C(=O)Nc2c(Cl)cc(C(F)(C(F)(F)F)C(F)(F)F)c(F)c2Cl)ccc1C#N [A14, 4-cyano-3-(4′-cyano-2′-methylbenzoylamino)-N-[2,6-dichloro-3-fluoro-4-(1,2,2,2-tetrafluoro-1-trifluoromethylethyl)phenyl]benzamide]
≥ 80%: Spodoptera littoralis | Thrips tabaci | Heliothis virescens | Diabrotica balteata | Plutella xylostella | Tetranychus urticae; [1]

CSc1cc(C(F)(C(F)(F)F)C(F)(F)C(F)(F)F)cc(Cl)c1NC(=O)c1ccc(C#N)c(NC(=O)c2ccc(C#N)cc2C)c1 (stereo not drawn) [A10, N-[2-chloro-4-(1,2,2,3,3,3-hexafluoro-1-trifluoromethylpropyl)-6-methylthiophenyl]-4-cyano-3-(4′-cyano-2′-methylbenzoylamino)benzamide]
≥ 80%: Spodoptera littoralis | Thrips tabaci | Heliothis virescens | Diabrotica balteata | Plutella xylostella | Tetranychus urticae; [1]

CCc1cc(C(F)(C(F)(F)F)C(F)(F)C(F)(F)F)cc(C)c1NC(=O)c1ccc(C#N)c(NC(=O)c2ccc(C#N)cc2C)c1 (stereo not drawn) [A1, 4-cyano-3-(4′-cyano-2′-methylbenzoylamino)-N-[2-ethyl-6-methyl-4-(1,2,2,3,3,3-hexafluoro-1-trifluoromethylpropyl)phenyl]benzamide]
≥ 80%: Spodoptera littoralis | Thrips tabaci | Heliothis virescens | Diabrotica balteata | Plutella xylostella | Tetranychus urticae; [1]

Cc1cc(C#N)ccc1C(=O)Nc1cc(C(=O)Nc2c(Cl)cc(C(F)(C(F)(F)F)C(F)(F)F)cc2Cl)ccc1C#N [A19, 4-cyano-3-(4′-cyano-2′-methylbenzoylamino)-N-[2,6-dichloro-4-(1,2,2,2-tetrafluoro-1-trifluoromethylethyl)phenyl]benzamide]
≥ 80%: Spodoptera littoralis | Thrips tabaci | Heliothis virescens | Diabrotica balteata | Plutella xylostella | Tetranychus urticae; [1]
